Legend:
rabbit [1] = details: Prenatal developmental toxicity study; Oral; Gavage/Intubation; dose end: 19 GD; group: maternal; reproductive / reproductive performance / aborted / aborted + reproductive / reproductive performance / resorptions / resorptions + systemic…
rat [2] = details: Sub-acute repeat dose toxicity, Oral, Gavage/Intubation, dose end: 36 day
dog [3] = details: Subchronic oral toxicity in nonrodent, beagle, Gavage/Intubation, dose end: 91 day, group: systemic, systemic / pathology microscopic / brain / necrosis
dog [4] = details: Subchronic oral toxicity in nonrodent, beagle, Gavage/Intubation, dose end: 91 day, group: systemic, systemic / in life observation / clinical signs / emesis + systemic / organ weight / liver / absolute + systemic / pathology microscopic / …
rat [5] = details: Sub-acute repeat dose toxicity, Oral, Gavage/Intubation, dose end: 14 day, group: systemic
rat [6] = details: Sub-acute repeat dose toxicity; wistar; Oral; Gavage/Intubation; dose end: 14 day; group: systemic; systemic / hematology / [other] / [other]
dog [7] = details: Sub-acute repeat dose toxicity; beagle; Oral; Gavage/Intubation; dose end: 14 day; group: systemic; systemic / clinical chemistry / [other] / [other] + systemic / clinical chemistry / cytochrome p450, nos / cytochrome p450, nos + systemic…
mouse = details: Sub-acute repeat dose toxicity, Oral, Gavage/Intubation, dose end: 14 day, group: systemic
rat [8] = details: Sub-acute repeat dose toxicity, Oral, Gavage/Intubation, dose end: 12 day
dog [9] = details: Subchronic oral toxicity in nonrodent, beagle, Gavage/Intubation, dose end: 91 day, group: systemic
rat [10] = details: Subchronic oral toxicity in rodents, Gavage/Intubation, dose end: 91 day, group: systemic
rat [11] = details: Multigenerational reproductive toxicity study, sprague dawley, Oral, Feed, dose end: 2 generation
rat [12] = details: Subchronic oral toxicity in rodents, wistar, [Not Specified], dose end: 3 month, group: systemic
dog [13] = details: Subchronic oral toxicity in nonrodent, beagle, Feed, dose end: 6 month, group: systemic
rat [14] = details: Subchronic oral toxicity in rodents, wistar, Feed, dose end: 90 day, group: systemic, systemic / pathology gross / adrenal gland / discolored + systemic / pathology gross / adrenal gland / enlarged + systemic / pathology …
rat [15] = details: Carcinogenicity, wistar, Oral, Feed, dose end: 24 month, group: systemic
rat [16] = details: Prenatal developmental toxicity study, wistar, Dermal, Topical, dose end: 19 GD
rabbit [17] = details: Prenatal developmental toxicity study; himalayan; Oral; Gavage/Intubation; dose end: 28 GD; group: maternal; systemic / in life observation / food consumption / food consumption + systemic / organ weight / adrenal gland / absolute + systemic / organ…
[18] = group: maternal, reproductive / offspring survival early / dead fetuses / dead fetuses + reproductive / offspring survival early / litter viability other / …
[19] = group: maternal, reproductive / offspring survival early / dead fetuses / dead fetuses + reproductive / reproductive performance / gestational length / …
[20] = group: systemic, systemic / in life observation / body weight / body weight gain + systemic / in life observation / body weight / offspring (pup) weight + …
[21] = group: systemic, systemic / in life observation / clinical signs / [other] + systemic / in life observation / clinical signs / body cold to touch + systemic…
[22] = systemic / clinical chemistry / [other] / [other]
[23] = systemic / hematology / leukocyte (wbc) count differential / leukocyte (wbc) + systemic / in life observation / body weight / body weight …
[24] = systemic / clinical chemistry / [other] / [other] + systemic / clinical chemistry / cytochrome p450, nos / cytochrome p450, nos + systemic…
[25] = group: maternal, reproductive / offspring survival early / litter size / litter size + reproductive / reproductive performance / postimplantation loss / …
[26] = group: systemic, systemic / in life observation / body weight / body weight gain + systemic / in life observation / clinical signs / emaciation + systemic / …
[27] = systemic / clinical chemistry / alkaline phosphatase (alp/alk) / alkaline phosphatase (alp/alk) + systemic / clinical chemistry / protein / …
[28] = systemic / pathology microscopic / liver / hypertrophy + systemic / pathology microscopic / brain / infiltration cellular + systemic / …
[29] = systemic / in life observation / food consumption / food consumption + systemic / pathology microscopic / kidney / dilatation + systemic / …
[30] = group: offspring, developmental / developmental landmark / nipple development / nipple development + developmental / developmental landmark / preputial …
[31] = group: parental, systemic / organ weight / epididymis / absolute + systemic / organ weight / epididymis / relative to body weight + systemic / organ weight…
[32] = group: reproductive, reproductive / reproductive performance / fertility / fertility
[33] = systemic / organ weight / kidney / nos + systemic / organ weight / prostate / nos + systemic / organ weight / adrenal gland / nos + systemic…
[34] = systemic / organ weight / prostate / nos + systemic / organ weight / adrenal gland / nos + systemic / organ weight / epididymis / nos + …
[35] = systemic / organ weight / adrenal gland / absolute + systemic / organ weight / adrenal gland / relative to body weight + systemic / clinical…
[36] = systemic / pathology microscopic / liver / eosinophilic focus + systemic / pathology microscopic / lung / foam cell aggregation
[37] = systemic / pathology microscopic / liver / eosinophilic focus + systemic / pathology microscopic / lung / foam cell aggregation + systemic…
[38] = group: developmental, developmental / developmental landmark / anogenital distance (agd) / anogenital distance (agd)
[39] = group: developmental, developmental / developmental landmark / anogenital distance (agd) / anogenital distance (agd) + developmental / developmental malformation…
[40] = group: maternal, systemic / organ weight / adrenal gland / absolute
[41] = group: maternal, systemic / organ weight / adrenal gland / absolute + systemic / organ weight / liver / absolute

CC(C)(C)c1cc(/C=C2\SC(N)=NC2=O)cc(C(C)(C)C)c1O.CS(=O)(=O)O [Darbufelone mesylate]
LOAEL (rabbit [1]): > 35 mg/kg/day | NOAEL (rabbit [1]): ≥ 35 mg/kg/day | LOAEL (rat [2]; [18]): > 25 mg/kg/day | NOAEL (rat [2]; [18]): ≥ 25 mg/kg/day | LEL (rat [2]; [19]): 5 mg/kg/day | NEL (rat [2]; [19]): < 5 mg/kg/day | LOAEL (rat [2]; [20]): > 25 mg/kg/day | NOAEL (rat [2]; [20]): ≥ 25 mg/kg/day | LEL (rat [2]; [21]): 5 mg/kg/day | NEL (rat [2]; [21]): < 5 mg/kg/day | LEL (dog [3]): 2 mg/kg/day | NEL (dog [3]): < 2 mg/kg/day | LEL (dog [4]): 2 mg/kg/day | LOAEL (dog [4]): > 10 mg/kg/day | NEL (dog [4]): < 2 mg/kg/day | NOAEL (dog [4]): ≥ 10 mg/kg/day | LEL (rat [5]; [22]): 10 mg/kg/day | NEL (rat [5]; [22]): < 10 mg/kg/day | LOAEL (rat [5]; [23]): > 1000 mg/kg/day | NOAEL (rat [5]; [23]): ≥ 1000 mg/kg/day | LEL (rat [6]): 1 mg/kg/day | LOAEL (rat [6]): > 75 mg/kg/day | NEL (rat [6]): < 1 mg/kg/day | NOAEL (rat [6]): ≥ 75 mg/kg/day | LEL (dog [7]): 2 mg/kg/day | LOAEL (dog [7]): > 5 mg/kg/day | NEL (dog [7]): < 2 mg/kg/day | NOAEL (dog [7]): ≥ 5 mg/kg/day | LOAEL (mouse; [24]): > 800 mg/kg/day | NOAEL (mouse; [24]): ≥ 800 mg/kg/day | NEL (mouse; systemic / organ weight / liver / absolute): < 35 mg/kg/day | LEL (rat [8]; [25]): 75 mg/kg/day | LOAEL (rat [8]; [25]): > 75 mg/kg/day | NEL (rat [8]; [25]): 50 mg/kg/day | NOAEL (rat [8]; [25]): ≥ 75 mg/kg/day | LOAEL (rat [8]; [26]): > 75 mg/kg/day | NEL (rat [8]; [26]): 10 mg/kg/day | NOAEL (rat [8]; [26]): ≥ 75 mg/kg/day | LOAEL (dog [9]; [27]): > 10 mg/kg/day | NOAEL (dog [9]; [27]): ≥ 10 mg/kg/day | LEL (dog [9]; [28]): 2 mg/kg/day | NEL (dog [9]; [28]): < 2 mg/kg/day | LOAEL (rat [10]; [24]): > 75 mg/kg/day | NOAEL (rat [10]; [24]): ≥ 75 mg/kg/day | LEL (rat [10]; [29]): 10 mg/kg/day | NEL (rat [10]; [29]): < 10 mg/kg/day

C=CC1(C)OC(=O)N(c2cc(Cl)cc(Cl)c2)C1=O (stereo unspecified) [Vinclozolin]
LEL (rat [11]; [30]): 14.8 mg/kg/day | LOAEL (rat [11]; [30]): 14.8 mg/kg/day | NEL (rat [11]; [30]): 3 mg/kg/day | NOAEL (rat [11]; [30]): 3 mg/kg/day | LOAEL (rat [11]; [31]): 14.8 mg/kg/day | NOAEL (rat [11]; [31]): 3 mg/kg/day | LEL (rat [11]; group: parental, systemic / pathology microscopic / adrenal gland / [other] + systemic / pathology microscopic / liver / hypertrophy): 11.5 mg/kg/day | NEL (rat [11]; group: parental, systemic / pathology microscopic / adrenal gland / [other] + systemic / pathology microscopic / liver / hypertrophy + systemic / clinical …): 2.34 mg/kg/day | LEL (rat [11]; [32]): 74.7 mg/kg/day | LOAEL (rat [11]; [32]): > 74.7 mg/kg/day | NEL (rat [11]; [32]): 14.8 mg/kg/day | NOAEL (rat [11]; [32]): ≥ 74.7 mg/kg/day | LOAEL (rat [12]; [33]): > 225 mg/kg/day | NOAEL (rat [12]; [33]): ≥ 225 mg/kg/day | LEL (rat [12]; [34]): 50 mg/kg/day | NEL (rat [12]; [34]): < 50 mg/kg/day | LOAEL (dog [13]; systemic / organ weight / adrenal gland / absolute + systemic / organ weight / adrenal gland / relative to body weight): 7.5 mg/kg/day | NEL (dog [13]; [35]): 2.5 mg/kg/day | NOAEL (dog [13]; [35]): 2.5 mg/kg/day | LEL (dog [13]; systemic / organ weight / adrenal gland / absolute + systemic / organ weight / adrenal gland / relative to body weight + systemic / organ …): 7.5 mg/kg/day | LEL (rat [14]): 24 mg/kg/day | LOAEL (rat [14]): 24 mg/kg/day | NEL (rat [14]): 4.4 mg/kg/day | NOAEL (rat [14]): 4.4 mg/kg/day | LOAEL (rat [15]; [36]): 2.3 mg/kg/day | NOAEL (rat [15]; [36]): < 2.3 mg/kg/day | LEL (rat [15]; [37]): 2.3 mg/kg/day | NEL (rat [15]; [37]): < 2.3 mg/kg/day | LEL (rat [16]; [38]): 180 mg/kg/day | LOAEL (rat [16]; [38]): 180 mg/kg/day | NEL (rat [16]; [39]): 60 mg/kg/day | NOAEL (rat [16]; [39]): 60 mg/kg/day | LEL (rat [16]; [40]): 180 mg/kg/day | LOAEL (rat [16]; [40]): 180 mg/kg/day | NEL (rat [16]; [41]): 60 mg/kg/day | NOAEL (rat [16]; [41]): 60 mg/kg/day | LEL (rabbit [17]): 200 mg/kg/day | LOAEL (rabbit [17]): 200 mg/kg/day | NEL (rabbit [17]): 50 mg/kg/day | NOAEL (rabbit [17]): 50 mg/kg/day
